Laboratory results as given in PubChem BioAssay (NCI).
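Values below derive from 48-hour exposures of cells grown in 96-well plates, with endpoints linearly interpolated between the two concentrations bracketing the appropriate inhibition level. At the TGI there is no net growth.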

Tests used:
Experiment in all cases: NCI-60 cell line screen, 48 h
[1] = tested on: SR leukemia
[2] = tested on: IGROV1 ovarian
[3] = tested on: RPMI-8226 leukemia
[4] = tested on: SW-620 colon
[5] = tested on: UACC-62 melanoma
[6] = tested on: MDA-MB-231 breast
[7] = tested on: RXF 393 renal
[8] = tested on: SN12C renal
[9] = tested on: K-562 leukemia
[10] = tested on: NCI-H460 lung
[11] = tested on: A549 NSCLC
[12] = tested on: KM12 colon

Compound	TGI [1]	TGI [2]	TGI [3]	TGI [4]	TGI [5]	TGI [6]	TGI [7]	TGI [8]	TGI [9]	TGI [10]	TGI [11]	TGI [12]
CC(NC(=O)Cc1ccccc1)NC(=O)C(C)C(=O)NCc1ccccc1 (configuration not stated)	> 100 µM	> 100 µM	> 100 µM	> 100 µM	> 100 µM	> 100 µM	> 100 µM	> 100 µM	> 100 µM	> 100 µM	> 100 µM	> 100 µM
Cc1c2ccc3ccccc3c2c[n+]2ccccc12	53.5 µM	> 100 µM	66.2 µM	80.5 µM	33.9 µM	> 82.3 µM	> 84.4 µM	13.4 µM	54.6 µM	40.2 µM	> 100 µM	12 µM
O=[N+]([O-])c1c(F)c(F)c2c(c1F)N(CCCCCl)c1ccccc1S2	> 100 µM	5.36 µM	20.8 µM	8.78 µM	26.9 µM	21.9 µM	27.4 µM	20.2 µM	4.74 µM	9.91 µM	31.8 µM	23.5 µM
CN(C)CCCNc1ccc2ncn3c4ccc(O)cc4c(=O)c1c23	1.55 µM	10.5 µM	18.2 µM	16.4 µM	13.5 µM	21.7 µM	2.91 µM	16.2 µM	28 µM	4.56 µM	5.82 µM	16.7 µM
CCCCCCCCCCCC(=O)OC[C@@H](C[As](=O)(O)O)OC(=O)CCCCCCCCCCC	57.2 µM	3.8 µM	> 68.2 µM	29.1 µM	6.94 µM	15.4 µM	6.99 µM	19.8 µM	> 55.1 µM	11.1 µM	31.3 µM	17.1 µM
Cc1ccc(CSC(N)=Nc2ccccc2)cc1C	55.8 µM	57.5 µM	75.9 µM	> 100 µM	26.6 µM	33.6 µM	33.4 µM	38.5 µM	61.7 µM	39 µM	> 100 µM	39.7 µM
